Source: patent publication US5489582A, “14-deoxy-14α-cardenolides 3β-thioderivatives and pharmaceutical composition comprising same for treating cardiovascular disorders” (Sigma-Tau Industrie Farmaceutiche Riuntie S.p.A, priority 1992, dated 1996)
pIC50: −log10 of the molar value. Structures can show the parent of a compound that is named as a salt.

Tests used:
Na^+,K^+ -ATPase [1] = target: T1, Na^+,K^+ -ATPase (Homo sapiens, UniProt P05023); assay: displacement of the specific 3H-ouabain binding from the purified Na+,K+-ATPase receptor; conditions: for IC50: 3H-ouabain displacement, purified Na+,K+-ATPase, read-out: Binding ^3 H-Ouab. Displacement log. IC50 (converted)
T1 construct: Na^+,K^+ -ATPase receptor purified according to Jorghensen; from tissue
From the text: (§1) To test the affinity for the receptor site of the Na^+,K^+ -ATPase and the agonist or inhibitory activity on the enzyme, the following tests were used: a) displacement of the specific 3H-ouabain binding from the Na^+,K^+ -ATPase receptor purified according to Jorghensen (Jorghensen P., BBA, 1974, 356, 36) and Erdmann (Erdmann E. et al., Arzneim. Forsh., 1984, 34 (II), 1314); b) inhibition of the activity of the purified Na^+,K^+ -ATPase measured as % of hydrolysis of ^32 P-ATP in presence and in absence of the tested compound (Mall F. et al., Biochem. Pharmacol., 1984, 33, 47).

Na^+,K^+ -ATPase [2] = target: T1, Na^+,K^+ -ATPase; assay: inhibition of the activity of the purified Na+,K+-ATPase (% hydrolysis of 32P-ATP); type: biochemical; conditions: for IC50: purified Na+,K+-ATPase, 32P-ATP hydrolysis, read-out: Inhibitory Activity log. IC50 (converted)
From the text: as §1

hypertensive MHS rats = assay: systolic blood pressure and heart rate in hypertensive MHS rats, indirect tail-cuff method, oral; type: in vivo, rat (MHS); conditions: n=7, 20 mg/kg os daily for ten days, in METHOCEL 0.5% w/v; for SBP (systolic blood pressure): controls 174 +/- 5.5; for HR (heart rate): controls 378 +/- 11.0
Description: The ability of these compounds to lower blood pressure in adult hypertensive MHS rats was tested by the following method:
systolic blood pressure (SBP) and heart rate (HR) were measured by an indirect tail-cuff method in three-month old hypertensive MHS rats before beginning treatment (basal values). The rats were then subdivided in two groups of 7 animals each, one receiving the compound and the other, the control group, receiving only the vehicle. The compound, suspended in METHOCEL® 0.5% (w/v), for ten days, was administered daily by mouth. SBP and HR were measured daily 6 and 24 hours after the treatment. When ten-day treatment washout had been under way for at least two days, whether the treatment maintains SBP low or re-establish the basal values was verified. […]

SMILES: C[C@]12CC[C@H]3[C@@H](CCC4=C[C@@H](SCCCN)CC[C@@]43C)[C@@H]1CC[C@@H]2C1=CC(=O)OC1 [I-f, 3β-(3-Aminopropylthio)-14α-card-4,20(22)-dienolide Oxalate]
- IC50 (Na^+,K^+ -ATPase [1]): 1.26 µM
- IC50 (Na^+,K^+ -ATPase [2]): 3.16 µM
- SBP (systolic blood pressure) (hypertensive MHS rats): 148 +/- 5.6 mm Hg
- HR (heart rate) (hypertensive MHS rats): 386 +/- 9.3 beats/min.

SMILES: C[C@]12CC[C@H](SCCCN)C[C@@H]1CC[C@@H]1[C@@H]2CC[C@]2(C)[C@@H](C3=CC(=O)OC3)CC[C@@H]12 [I-h, 3β-(3-Aminopropylthio)-5α,14α-card-20(22)-enolide Oxalate]
- pIC50 (Na^+,K^+ -ATPase [1]): 5.80
- pIC50 (Na^+,K^+ -ATPase [2]): 5.40
- SBP (systolic blood pressure) (hypertensive MHS rats): 158 +/- 5.4 mm Hg
- HR (heart rate) (hypertensive MHS rats): 379 +/- 10.4 beats/min.

SMILES: C[C@]12CC[C@H]3[C@@H](CC=C4C[C@@H](SCCCN)CC[C@@]43C)[C@@H]1CC[C@@H]2C1=CC(=O)OC1 [I-g, 3β-(3-Aminopropylthio)-14α-card-5,20(22)-dienolide Oxalate]
- IC50 (Na^+,K^+ -ATPase [1]): 1 µM
- IC50 (Na^+,K^+ -ATPase [2]): 2 µM
- SBP (systolic blood pressure) (hypertensive MHS rats): 150 +/- 5.2 mm Hg
- HR (heart rate) (hypertensive MHS rats): 383 +/- 9.6 beats/min.

SMILES: C[C@]12CC[C@H](O)C[C@H]1CC[C@@H]1[C@@H]2CC[C@]2(C)[C@@H](C3=CC(=O)OC3)CC[C@]12O [DIGI, digitoxigenin, reference compound]
- SBP (systolic blood pressure) (hypertensive MHS rats): 173 +/- 4.0 mm Hg
- HR (heart rate) (hypertensive MHS rats): 380 +/- 10.0 beats/min.

SMILES: C[C@]12CC[C@H](SCCCN)C[C@H]1CC[C@@H]1[C@@H]2CC[C@]2(C)[C@@H](C3=CC(=O)OC3)CC[C@@H]12 [I-d, 3β-(3-Aminopropylthio)-5β,14α-card-20(22)-enolide Oxalate]
- pIC50 (Na^+,K^+ -ATPase [1]): 5.90
- pIC50 (Na^+,K^+ -ATPase [2]): 5.70
- SBP (systolic blood pressure) (hypertensive MHS rats): 154 +/- 5.2 mm Hg
- HR (heart rate) (hypertensive MHS rats): 384 +/- 10.3 beats/min.

SMILES: C[C@]12CC[C@H](SCCCN3CCNCC3)C[C@H]1CC[C@@H]1[C@@H]2CC[C@]2(C)[C@@H](C3=CC(=O)OC3)CC[C@@H]12 [I-c, 3β-(3-(1-Piperazinyl)propylthio)-5β,14α-card-20(22)-enolideDioxalate]
- IC50 (Na^+,K^+ -ATPase [1]): 0.794 µM
- pIC50 (Na^+,K^+ -ATPase [2]): 5.80
- SBP (systolic blood pressure) (hypertensive MHS rats): 144 +/- 6.2 mm Hg
- HR (heart rate) (hypertensive MHS rats): 390 +/- 12.0 beats/min.

SMILES: C[C@]12CC[C@H](SCC(O)CN3CCCC3)C[C@H]1CC[C@@H]1[C@@H]2CC[C@]2(C)[C@@H](C3=CC(=O)OC3)CC[C@@H]12 (stereo partly drawn) [I-e, 3β-(3-(1-Pirrolidinyl)-2-hydroxypropylthio)-5β,14α-card-20(22)-enolide]
- IC50 (Na^+,K^+ -ATPase [1]): 2 µM
- IC50 (Na^+,K^+ -ATPase [2]): 3.98 µM

SMILES: C[C@]12CC[C@H](SCCN3CCCC3)C[C@H]1CC[C@@H]1[C@@H]2CC[C@]2(C)[C@@H](C3=CC(=O)OC3)CC[C@@H]12 [I-a, 3β-(2-(1-Pyrrolidinyl)ethylthio)-5β,14α-card-20(22)-enolideOxalate]
- IC50 (Na^+,K^+ -ATPase [1]): 3.16 µM
- pIC50 (Na^+,K^+ -ATPase [2]): 5.30

SMILES: CN(C)CCCS[C@H]1CC[C@@]2(C)[C@H](CC[C@@H]3[C@@H]2CC[C@]2(C)[C@@H](C4=CC(=O)OC4)CC[C@@H]32)C1 [I-b, 3β-(3-Dimethylaminopropylthio)-5β,14α-card-20(22)-enolide Oxalate]
- IC50 (Na^+,K^+ -ATPase [1]): 1 µM
- pIC50 (Na^+,K^+ -ATPase [2]): 5.50
